Like-named read-outs stand apart in the source and are kept apart here.
What was measured:
HT-29 tumor cells = assay: Anti-proliferative activity, SRB assay; type: cell-based, human; conditions: 72 hours exposure, read-out: CELLULAR IC50 HT-29
Summary of the method: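 IC50 derived from % inhibition relative to DMSO controls, measured by sulforhodamine B binding (OD570) after TCA fixation. Cells (3,000-15,000 per well) were seeded a day ahead, then treated with graded compound concentrations for 72 hours.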

B-Raf delta1-415 = B-Raf delta1-415 (Homo sapiens, UniProt P15056); assay: B-Raf kinase inhibition (MAPH filter plate, 33P-ATP, MEK1 substrate); conditions: read-out: Biochemical IC50 B-Raf
Summary of the method: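 IC50 values come from dilution series (top 10 μM) measured by scintillation counting of 33P-labelled MEK1 retained on H3PO4-washed filters. Reactions ran 1 h at room temperature in pH 7.0 Mops buffer with MgCl2, MnCl2 and DTT, using 12.5 μCi/ml [γ-33P]ATP and B-Raf delta1-415 titrated to 50% turnover.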

Sequence of B-Raf delta1-415 (P15056 416-766): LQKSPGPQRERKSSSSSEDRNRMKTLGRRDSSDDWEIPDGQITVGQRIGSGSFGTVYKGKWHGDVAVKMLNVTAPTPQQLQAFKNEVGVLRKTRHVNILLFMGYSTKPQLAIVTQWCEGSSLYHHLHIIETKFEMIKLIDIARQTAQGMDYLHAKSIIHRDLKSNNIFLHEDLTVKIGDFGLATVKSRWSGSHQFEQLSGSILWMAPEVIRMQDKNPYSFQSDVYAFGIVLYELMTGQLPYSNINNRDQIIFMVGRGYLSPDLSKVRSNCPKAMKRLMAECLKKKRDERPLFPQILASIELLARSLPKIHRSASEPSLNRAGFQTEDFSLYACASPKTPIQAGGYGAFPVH

Structure (SMILES)	IC50 (HT-29 tumor cells; Homo sapiens, HT-29, 72 h) [nM]	IC50 (B-Raf delta1-415) [nM]	IC50 (HT-29 tumor cells) [nM]
COC(=O)c1ccc(Nc2ncc3cc(-c4c(Cl)cccc4Cl)c(=O)n(OC)c3n2)cc1 [Compound 162, 6-(2,6-Dichlorophenyl)-2-(4-methoxycarbonylphenyl)-amino-8-methoxy-pyrido[2,3-d]pyrimidin-7-one]	< 1000	> 1000	
COn1c(=O)c(-c2c(Cl)cccc2Cl)cc2cnc(Nc3ccc(C(F)(F)F)c(Cl)c3)nc21 [Compound 133, 2-(3-Chloro-4-trifluoromethylphenyl)-amino-6-(2,6-dichlorophenyl)-8-methoxy-pyrido[2,3-d]pyrimidin-7-one]	< 10000	> 1000	
Nc1ncc2cc(-c3c(Cl)cccc3Cl)c(=O)n(OCc3cccnc3)c2n1 [Compound 232, 2-Amino-6-(2,6-dichlorophenyl)-8-(pyrid-3-yl)methoxy-pyrido[2,3-d]pyrimidin-7-one]	< 10000	< 1000	
COn1c(=O)c(-c2c(Cl)cccc2Cl)cc2cnc(Nc3cccc(CN4CCC(F)(F)C4)c3)nc21 [Compound 183, 6-(2,6-Dichlorophenyl)-2-(3-(3,3-difluoropyrrolidinomethyl)phenyl)-amino-8-methoxy-pyrido[2,3-d]pyrimidin-7-one]	< 1000	> 1000	
COn1c(=O)c(-c2c(Cl)cccc2Cl)cc2cnc(Nc3nc(C(=O)N(C)CCO)cs3)nc21 [Compound 138, 6-(2,6-Dichlorophenyl)-8-methoxy-2-(4-N-(2-hydroxyethyl)-N-methyl-aminocarbonyl-thiazol-2-yl)-amino-pyrido[2,3-d]pyrimidin-7-one]		< 1000	< 10000
COn1c(=O)c(-c2c(Cl)cccc2Cl)cc2cnc(Nc3ccc(Cn4cncn4)cc3)nc21 [Compound 104, 6-(2,6-Dichlorophenyl)-8-methoxy-2-(4-(1,2,4-triazol-1-yl)methylphenyl)-amino-pyrido[2,3-d]pyrimidin-7-one]	< 1000	< 500	
O=c1c(-c2c(Cl)cccc2Cl)cc2cnc(Nc3ccc(N4CCNCC4)cc3)nc2n1OCC1CCOCC1 [Compound 202, 6-(2,6-Dichlorophenyl)-8-(tetrahydropyran-4-ylmethyl)oxy-2-(4-piperazinophenyl)-amino-pyrido[2,3-d]pyrimidin-7-one]	< 1000	< 500	

The next lines start with the values.

IC50 (HT-29 tumor cells; Homo sapiens, HT-29, 72 h) [nM]	IC50 (B-Raf delta1-415) [nM]	IC50 (HT-29 tumor cells) [nM]	Structure (SMILES)
< 1000	< 500		COn1c(=O)c(-c2c(Cl)cccc2Cl)cc2cnc(Nc3cc(C(=O)NCCN4CCCC4)n(C)c3)nc21 [Compound 94, 6-(2,6-Dichlorophenyl)-8-methoxy-2-(5-(2-pyrrolidinoethyl)aminocarbonyl-1-methyl-pyrrol-3-yl)-amino-pyrido[2,3-d]pyrimidin-7-one]
< 10000	< 500		COn1c(=O)c(-c2c(Cl)cccc2Cl)cc2cnc(Nc3nncs3)nc21 [Compound 90, 6-(2,6-Dichlorophenyl)-8-methoxy-2-(1-thia-3,4-diazol-2-yl)-amino-pyrido[2,3-d]pyrimidin-7-one]
< 1000	< 100		COn1c(=O)c(-c2c(Cl)cccc2Cl)cc2cnc(Nc3ccc(CN4CCCC4)cc3)nc21 [Compound 101, 6-(2,6-Dichlorophenyl)-8-methoxy-2-(4-pyrrolidinomethylphenyl)-amino-pyrido[2,3-d]pyrimidin-7-one]
< 10000	< 500		COn1c(=O)c(-c2c(Cl)cccc2Cl)cc2cnc(NC3CC3)nc21 [Compound 113, 2-Cyclopropylamino-6-(2,6-dichlorophenyl)-8-methoxy-pyrido[2,3-d]pyrimidin-7-one]
< 1000	< 500		COn1c(=O)c(-c2c(Cl)cccc2Cl)cc2cnc(Nc3ccc(CN4CCC4)cc3)nc21 [Compound 201, 2-(4-(1-azacyclobutyl)methylphenyl)-amino-6-(2,6-dichlorophenyl)-8-methoxy-pyrido[2,3-d]pyrimidin-7-one]
< 1000	< 500		COn1c(=O)c(-c2c(C)cccc2C)cc2cnc(Nc3cc(C(=O)NCCN4CCCC4)n(C)c3)nc21 [Compound 87, 6-(2,6-Dimethylphenyl)-8-methoxy-2-(5-(2-pyrrolidinoethyl)aminocarbonyl-1-methyl-pyrrol-3-yl)-amino-pyrido[2,3-d]pyrimidin-7-one]
< 1000	< 500		CCN(CC)CCNC(=O)c1cc(Nc2ncc3cc(-c4c(Cl)cccc4Cl)c(=O)n(OC)c3n2)cn1C [Compound 81, 6-(2,6-Dichlorophenyl)-2-(5-(2-diethylaminoethyl)aminocarbonyl-1-methyl-pyrrol-3-yl)-amino-8-methoxy-pyrido[2,3-d]pyrimidin-7-one]
< 1000	< 500		CCOn1c(=O)c(-c2c(Cl)cccc2Cl)cc2cnc(Nc3cc(C(=O)N(C)CCOC)n(C)c3)nc21 [Compound 171, 6-(2,6-Dichlorophenyl)-8-ethoxy-2-(5-N-(2-methoxyethyl)-N-methyl-aminocarbonyl-1-methyl-pyrrol-3-yl)-amino-pyrido[2,3-d]pyrimidin-7-one]
< 10000	< 500		COn1c(=O)c(-c2c(Cl)cccc2Cl)cc2cnc(NCc3ccncc3)nc21 [Compound 147, 6-(2,6-Dichlorophenyl)-8-methoxy-2-pyrid-4-ylmethylamino-pyrido[2,3-d]pyrimidin-7-one]
< 1000	< 100		COCCOn1c(=O)c(-c2c(F)cccc2Cl)cc2cnc(Nc3ccc(N4CCOCC4)cc3)nc21 [Compound 121]

— US8518958B2, “Pyrido [2,3-D] pyrimidines and their use as kinase inhibitors” (Forma Therapeutics, Inc., priority 2006, dated 2013)
